A short description of data set [1]: Partition coefficient (logD). Particulars: octanol/water. In kind it is physicochemical.
The species named for a further data set is Homo sapiens. Briefly: The estimated hydrolysis rate in the human cerebral cortex. In kind it is functional.
Data set [2] can be described thus: Partition coefficient (logD) (octanol/phosphate buffer). In kind it is physicochemical.
Data set [3] concerns the target Cholinesterase (Homo sapiens) (UniProt P06276). Briefly: Specificity to butyrylcholinesterase.

Chain of Cholinesterase (Homo sapiens) (P06276 whole entry): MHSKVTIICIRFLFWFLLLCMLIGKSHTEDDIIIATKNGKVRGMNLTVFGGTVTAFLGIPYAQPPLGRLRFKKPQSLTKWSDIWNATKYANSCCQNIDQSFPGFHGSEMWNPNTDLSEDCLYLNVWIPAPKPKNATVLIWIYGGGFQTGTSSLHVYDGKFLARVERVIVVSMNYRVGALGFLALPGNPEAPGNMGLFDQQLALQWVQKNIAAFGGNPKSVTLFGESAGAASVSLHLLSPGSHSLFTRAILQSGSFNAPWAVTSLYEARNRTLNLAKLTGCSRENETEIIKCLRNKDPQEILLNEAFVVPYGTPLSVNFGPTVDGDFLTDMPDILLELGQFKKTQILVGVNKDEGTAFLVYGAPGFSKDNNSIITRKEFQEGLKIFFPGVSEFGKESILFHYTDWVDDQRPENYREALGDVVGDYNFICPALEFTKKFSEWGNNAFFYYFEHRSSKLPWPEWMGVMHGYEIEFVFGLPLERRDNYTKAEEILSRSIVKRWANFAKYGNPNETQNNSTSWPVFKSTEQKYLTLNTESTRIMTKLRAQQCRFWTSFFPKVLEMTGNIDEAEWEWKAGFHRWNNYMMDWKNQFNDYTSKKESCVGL

Turning to `CC(=O)OC1CCN(C)CC1`, the values for the logD in data set [1] and in data set [2] were -0.3 and -2.2, respectively. In the data set listed under Homo sapiens, the Total rate was 0.16 g⁻¹ min⁻¹ mL⁻¹.

On to `CCC(=O)OC1CCN(C)CC1`, for which the values for the logD in data set [1] and in data set [2] were -0.22 and -2.2, respectively. The Total rate in the data set filed under Homo sapiens was 0.035 g⁻¹ min⁻¹ mL⁻¹.

Regarding `CCCC(=O)OCC1CCN(CCF)CC1`, the figures for the logD in data set [1] and in data set [2] were 0.62 and -1.3, respectively. Besides, the Total rate in the data set filed under Homo sapiens is 0.2 g⁻¹ min⁻¹ mL⁻¹. For the same molecule, the Specificity in data set [3] is 98%.

`CCCC(=O)OC1CCN(C)CC1`: the logD in data set [1] was 0.21; in data set [2], -2.2. The Total rate in the data set listed under Homo sapiens is 0.033 g⁻¹ min⁻¹ mL⁻¹. In addition, in data set [3], the Specificity was found to be 98%.

For orientation: logD means the decadic logarithm of the distribution of all forms, ionised or not, between an organic phase and buffer at a given pH. A low value points to a more hydrophilic compound.

The values above are taken from ChEMBL document CHEMBL1147519, “N-[18F]fluoroethylpiperidin-4-ylmethyl butyrate: a novel radiotracer for quantifying brain butyrylcholinesterase activity by positron emission tomography” (Bioorg Med Chem Lett, 2004).
